Results reported in publication PMC6958387, “Biological Evaluation of Arylsemicarbazone Derivatives as Potential Anticancer Agents” (Pharmaceuticals, 2019).

What was measured:
[1] = system: HL-60 cells; assay: DNA fragmentation assay (sub-G1, propidium iodide); assay type: cell-based, human; settings: 72 h
Description: DNA fragmentation is initiated after chromatin condensation and depends on several variables, such as the time required for the depolarization of the mitochondria and activation of the caspase cascade. In response to DNA damage the p53 protein is activated causing cell cycle arrest in G1 [57]. At flow cytometry the apoptotic cells with fragmented DNA can be identified as the sub-G1 population, seen to the left of the G1 peak. Thus, using the fluorochrome propidium iodide and the same principle of the cell cycle test, an assay was performed to identify HL-60 cells with fragmented DNA (Figure 7).
(§1) HL-60 cells (3 × 10^5) were plated in 24-well plates and treated with the compounds 3c (13 and 26 μM) and 4a (11 and 22 μM) for 72 h at 37 °C with 5% CO2. In all trials, doxorubicin was used as a positive control. After the incubation period, an aliquot of 500 μL of treated and untreated cells suspension was transferred to an Eppendorf tube and centrifuged to remove the supernatant and continue the protocol of the test. In the cell viability and annexin V assays, kits were used, ViaCount kit and guava nexin kit (Guava Technologies), respectively. The protocols performed in these tests followed the manufacturer’s instructions. For to analyze mitochondrial depolarization, rhodamine 123 fluorescent dye was used. In the assay for cell cycle analysis and DNA fragmentation propidium iodide was used. The experiments were performed on Guava EasyCyte HT (Merck-Millipore) flow cytometer, acquiring 5000 events. The data were analyzed in Guava-Soft™ software version 2.7. Three independent experiments were performed in triplicate.

[2] = biological target: panel of ten different protein kinases; assay: Kinase inhibition, panel of ten protein kinases; assay type: biochemical; settings: 3c: except towards HASPIN, CK1 and GSK3; inactive = IC50 > 10 μM; read-out: IC50 across the kinase panel
Description: A panel of ten native or recombinant protein kinases was used during this study: […]

[3] = system: HL-60 cells; assay: Annexin V-FITC/7-AAD test, flow cytometry; assay type: cell-based, human; settings: for cells in initial apoptosis [Annexin V(+) and 7-AAD(−)] / cells in late apoptosis [Annexin V(+) and 7-AAD(+)] / dead cells [Annexin V(−) and 7-AAD (+)]: 72 h
Protocol: Aiming to better study the mechanism of induction of death involved in HL-60 cells after treatment with compounds 3c and 4a, a flow cytometric test was performed after double staining with annexin V-FITC/7-AAD. This assay is based on the ability of annexin V to bind with high affinity to phosphatidylserine which is translocated to the outer membrane of apoptotic cells and the 7-AAD dye binds to the DNA of cells with loss of membrane integrity. Thus, in this test it is possible to identify four distinct populations: viable cells [Annexin V(−) and 7-AAD(−)], initial apoptotic cells [Annexin V(+) and 7-AAD(−)], late apoptotic cells [Annexin V(+) and 7-AAD(+)] and dead cells [Annexin V(−) and 7-AAD (+)] [59].
as §1

[4] = system: HL-60 cells; assay: Cell viability, Guava ViaCount kit, flow cytometry; assay type: cell-based, human; settings: 22 μM, 72 h
Protocol: Initially, the percentage of viable cells in apoptosis or necrosis was determined by the ViaCount assay at the Guava EasyCyte HT flow cytometer (Merck-Millipore, Hayward, CA, USA). The ViaCount kit (Merck-Millipore, Hayward, CA, USA) determines cell viability based on membrane permeability. The concentrations used in the cytometric tests were values corresponding to the IC50 and 2x IC50 of 72 h and the chosen cell line was HL-60 (promyelocytic leukemia).
as §1, with “The experiments were performed on Guava EasyCyte HT (Merck-Millipore) flow cytometer, acquiring 5000 events.” left out, “Three independent experiments were performed in triplicate.” left out

IC50 [2] | melting point | SMILES | cells with DNA fragmentation ([1]; 13 μM) | cells with DNA fragmentation ([1]; 26 μM) | cells in initial apoptosis [Annexin V(+) and 7-AAD(−)] ([3]; 13 μM) | cells in late apoptosis [Annexin V(+) and 7-AAD(+)] ([3]; 13 μM) | cells in initial apoptosis [Annexin V(+) and 7-AAD(−)] ([3]; 26 μM) | cells in late apoptosis [Annexin V(+) and 7-AAD(+)] ([3]; 26 μM) | cells in apoptosis (annexin V assay) ([3]; highest concentration tested (26 μM)) | cells with DNA fragmentation ([1]; 11 μM) | cells with DNA fragmentation ([1]; 22 μM) | cells in initial apoptosis [Annexin V(+) and 7-AAD(−)] ([3]; 11 μM) | cells in late apoptosis [Annexin V(+) and 7-AAD(+)] ([3]; 11 μM) | dead cells [Annexin V(−) and 7-AAD (+)] ([3]; 11 μM) | cells in initial apoptosis [Annexin V(+) and 7-AAD(−)] ([3]; 22 μM) | cells in late apoptosis [Annexin V(+) and 7-AAD(+)] ([3]; 22 μM) | dead cells [Annexin V(−) and 7-AAD (+)] ([3]; 22 μM) | cells in early apoptosis (ViaCount) [4]
0.073 to 5.1 µM | – | NC(=O)N/N=C/c1c(O)ccc2ccccc12 [Compound 3c, 2-Hydroxynaphthaldehyde Semicarbazone] | 3.2% | 7.5% | 16.7% | 7.4% | 27.2% | 18.1% | approximately 50% | – | – | – | – | – | – | – | – | –
> 10 µM | 215 to 217 °C | Cc1ccc(C=NNC(N)=O)cc1 [Compound 3g, 4-Methylbenzaldehyde Semicarbazone] | – | – | – | – | – | – | – | – | – | – | – | – | – | – | – | –
– | – | CCCCN(N=Cc1ccc([N+](=O)[O-])o1)C(N)=O [Compound 4a, 5-Nitro-2-(N^2-n-butyl)furfuraldehyde Semicarbazone] | – | – | – | – | – | – | – | 7.0% | 40.3% | 5.4% | 8.3% | 9.1% | 4.7% | 12.5% | ~50% | 65.3%
